58 compounds from the Kinase Knowledgebase extract (Sharma et al. 2016) can be followed below.

Assay [1] has as its target MAPK14 (UniProt Q16539). As to the kind of experiment: Inhibition of p38 Kinase Activity.
In assay [2] the test system is MAPK14 (C3H mice). As to the kind of experiment: Inhibition of LPS Stimulated TNF Production in C3H Mice. Conditions: dose or concentration not given here.
The target of assay [3] is MAPK14 (human) (UniProt Q16539). As to the kind of experiment: Inhibition of HFF Cell Proliferation.
Sequence of MAPK14 (human) (Q16539 whole entry, looked up): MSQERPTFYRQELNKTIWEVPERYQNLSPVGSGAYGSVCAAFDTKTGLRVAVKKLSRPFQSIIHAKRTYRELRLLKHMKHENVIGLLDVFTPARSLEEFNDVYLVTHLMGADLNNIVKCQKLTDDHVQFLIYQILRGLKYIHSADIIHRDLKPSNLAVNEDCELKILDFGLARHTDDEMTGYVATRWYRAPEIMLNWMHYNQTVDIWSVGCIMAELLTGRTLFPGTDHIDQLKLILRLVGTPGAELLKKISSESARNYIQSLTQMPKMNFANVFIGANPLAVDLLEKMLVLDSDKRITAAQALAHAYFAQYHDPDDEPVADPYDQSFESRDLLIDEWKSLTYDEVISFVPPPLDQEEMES
Assay [4] shares this target. As to the kind of experiment: Inhibition of TNF Release from Human Peripheral Blood Mononuclear Cells. The note with it: pbmc.

Sequence of MAPK14 (Q16539 whole entry, looked up): as above

On to `Fc1ccc(-c2nn3ccccc3c2-c2ccnc(NCc3ccccn3)n2)cc1`, for which the IC50 – broadly, the midpoint of a concentration-inhibition curve – in assay [1] was < 500 nM. Besides, the inhibition (in general, the drop in the measured response relative to a control, in per cent) in assay [2] was 87%.

In the case of `OCc1ccn2nc(-c3ccc(F)cc3)c(-c3ccncc3)c2c1`, in assay [1], the IC50 is < 500 nM.

As to `Fc1ccc(-c2nn3cc(C(F)(F)F)ccc3c2-c2ccnc(NCCCN3CCOCC3)n2)cc1Cl`, the half-maximal inhibitory concentration (IC50) in assay [1] is 100 to 1000 nM.

Compound `CCN(CC)CCCCNc1nccc(-c2c(-c3ccc(F)c(Cl)c3)nn3cc(C(F)(F)F)ccc23)n1` displayed an IC50 in assay [1] of 10 to 100 nM.

In the case of `N#Cc1ccc2c(-c3ccnc(NC4CC4)n3)c(-c3ccc(F)cc3)nn2c1`, the half-inhibitory concentration (IC50) in assay [1] was < 500 nM. In assay [2], this compound yielded an inhibition of 52%.

Take `FC(F)(F)c1ccc(-c2nn3cc(C(F)(F)F)ccc3c2-c2ccnc(NCCCN3CCOCC3)n2)cc1`: in assay [1], the IC50 is 1000 to 10000 nM.

Consider `Nc1ncccc1C(=O)OCc1ccn2nc(-c3ccc(F)cc3)c(-c3ccncc3)c2c1`, for which the results for the half-inhibitory concentration (IC50) in assay [1] and in assay [3] were < 500 nM and > 50000 nM, respectively.

Consider `CN(C)CCCNc1nccc(-c2c(-c3ccc(C(F)(F)F)cc3)nn3cc(C(F)(F)F)ccc23)n1`, for which, in assay [1], the IC50 was 1000 to 10000 nM.

As to `Fc1ccc(-c2nn3ccccc3c2-c2ccncc2)cc1`, the IC50 was < 500 nM in assay [1] and > 50000 nM in assay [3]. This compound also displayed an inhibition in assay [2] of 65%.

Turning to `CCCN1CCN(CCNc2nccc(-c3c(-c4cccc(Cl)c4)nn4cc(C(F)(F)F)ccc34)n2)CC1`, the IC50 in assay [1] was 10 to 100 nM.

In assay [1], `FC(F)(F)c1ccc(-c2nn3cc(C(F)(F)F)ccc3c2-c2ccnc(NCCN3CCCC3)n2)cc1` displayed a concentration for half-maximal inhibition (IC50) of 1000 to 10000 nM.

As to `Fc1ccc(-c2nn3ccccc3c2-c2ccnc(NCc3cccnc3)c2)cc1`, the 50% inhibitory concentration (IC50) was < 500 nM in assay [1] and 5000 to 50000 nM in assay [3].

Regarding `FC(F)(F)c1ccc2c(-c3ccnc(NCCCN4CCOCC4)n3)c(-c3cccc(Cl)c3)nn2c1`, in assay [1], the IC50 is 10 to 100 nM.

For the compound `Fc1ccc(-c2nn3cc(C(F)(F)F)ccc3c2-c2ccnc(NC3CC3)n2)cc1`, the IC50 in assay [1] was < 500 nM. Further, the inhibition in assay [2] was 24%.

In assay [1], `CCCN1CCN(CCNc2nccc(-c3c(-c4ccc(F)c(Cl)c4)nn4cc(C(F)(F)F)ccc34)n2)CC1` registered an IC50 of 10 to 100 nM.

`CCN(CC)CCNc1nccc(-c2c(-c3cccc(Cl)c3)nn3cc(C(F)(F)F)ccc23)n1` came in with an IC50 in assay [1] of 100 to 1000 nM.

Consider `NC(=O)c1ccc2c(-c3ccnc(NCCCN4CCCCC4)n3)c(-c3ccc(F)cc3)nn2c1`, for which the half-maximal inhibitory concentration (IC50) in assay [1] was < 500 nM.

Regarding `FC(F)(F)c1ccc2c(-c3ccnc(NCCCCN4CCCC4)n3)c(-c3cccc(Cl)c3)nn2c1`, in assay [1], the IC50 fell in the range of 10 to 100 nM.

Regarding `Fc1ccc(-c2nn3cc(C(F)(F)F)ccc3c2-c2ccnc(NCCCN3CCCCC3)n2)cc1Cl`, the IC50 in assay [1] is 100 to 1000 nM.

`OCCCNc1nccc(-c2c(-c3ccc(F)cc3)nn3cc(C(F)(F)F)ccc23)n1`: the IC50 in assay [1] was < 500 nM.

`CN(C)CCCNc1nccc(-c2c(-c3ccc(F)cc3)nn3cc(C(F)(F)F)ccc23)n1` gave an IC50 in assay [1] of 100 to 1000 nM.

For the compound `Nc1nccc(-c2c(-c3ccc(F)cc3)nn3ccccc23)n1`, the half-inhibitory concentration (IC50) in assay [1] was < 500 nM. The same compound gave an inhibition in assay [2] of 62%.

As to `NC(=O)c1ccc2c(-c3ccnc(NC4CC4)n3)c(-c3ccc(F)cc3)nn2c1`, the IC50 in assay [1] and in assay [4] was < 500 nM throughout. The inhibition in assay [2] was determined as 90%.

In the case of `Fc1ccc(-c2nn3cc(C(F)(F)F)ccc3c2-c2ccnc(NCCN3CCOCC3)n2)cc1Cl`, in assay [1], the IC50 is 10 to 100 nM.

On to `FC(F)(F)c1ccc2c(-c3ccnc(NCCN4CCCCCC4)n3)c(-c3cccc(Cl)c3)nn2c1`, for which the IC50 in assay [1] lay in the range of 100 to 1000 nM.

As for `Fc1ccc(-c2nn3cc(C(F)(F)F)ccc3c2-c2ccncc2)cc1`, the IC50 in assay [1] was < 500 nM.

On to `Fc1ccc(-c2nn3cc(C(F)(F)F)ccc3c2-c2ccnc(NCCN3CCCCC3)n2)cc1Cl`, for which, in assay [1], the IC50 was in the range of 100 to 1000 nM.

For `Fc1ccc(-c2nn3cc(C(F)(F)F)ccc3c2-c2ccnc(NCCN3CCCC3)n2)cc1Cl`, the half-maximal inhibitory concentration (IC50) in assay [1] was 100 to 1000 nM.

In assay [1], `CCCN(CCC)CCNc1nccc(-c2c(-c3ccc(C(F)(F)F)cc3)nn3cc(C(F)(F)F)ccc23)n1` had an IC50 of 1000 to 10000 nM.

`CCCN(CCC)CCNc1nccc(-c2c(-c3cccc(Cl)c3)nn3cc(C(F)(F)F)ccc23)n1`: the concentration for half-maximal inhibition (IC50) in assay [1] fell in the range of 100 to 1000 nM.

In assay [1], `CN1CCN(CCCNc2nccc(-c3c(-c4ccc(F)c(Cl)c4)nn4cc(C(F)(F)F)ccc34)n2)CC1` displayed an IC50 of 10 to 100 nM.

Regarding `Fc1ccc(-c2nn3ccccc3c2-c2ccnc(NCc3ccc(Cl)cc3)c2)cc1`, the IC50 in assay [1] and in assay [4] was < 500 nM throughout. Also, in assay [2], the inhibition turned out to be 42%.

On to `CN(C)CCCNc1nccc(-c2c(-c3cccc(Cl)c3)nn3cc(C(F)(F)F)ccc23)n1`, for which the half-maximal inhibitory concentration (IC50) in assay [1] lay within 10 to 100 nM.

With `FC(F)(F)c1ccc2c(-c3ccnc(NCCN4CCCCC4)n3)c(-c3cccc(Cl)c3)nn2c1`, the half-inhibitory concentration (IC50) in assay [1] fell in the range of 100 to 1000 nM.

With `Fc1ccc(-c2nn3ccccc3c2-c2ccnc(NCCc3cnc[nH]3)n2)cc1`, in assay [1], the concentration for half-maximal inhibition (IC50) was < 500 nM.

With `Cc1ccc(C)c(Oc2nccc(-c3c(-c4ccc(F)cc4)nn4cc(C(F)(F)F)ccc34)n2)c1`, in assay [1], the half-inhibitory concentration (IC50) is < 500 nM.

As to `CCCN1CCN(CCNc2nccc(-c3c(-c4ccc(C(F)(F)F)cc4)nn4cc(C(F)(F)F)ccc34)n2)CC1`, the IC50 in assay [1] lay within 1000 to 10000 nM.

Take `CN1CCN(CCCNc2nccc(-c3c(-c4ccc(F)cc4)nn4cc(C(F)(F)F)ccc34)n2)CC1`: the IC50 in assay [1] was 10 to 100 nM.

Consider `Fc1ccc(-c2nn3ccccc3c2-c2ccncn2)cc1`, for which the IC50 in assay [1] is 500 to 5000 nM; in assay [3], > 50000 nM. For the same compound, the inhibition in assay [2] is 67%.

With `FC(F)(F)c1ccc(-c2nn3cc(C(F)(F)F)ccc3c2-c2ccnc(NCCN3CCCCC3)n2)cc1`, in assay [1], the IC50 lay in the range of 1000 to 10000 nM.

In assay [1], `CCN(CC)CCCCNc1nccc(-c2c(-c3cccc(Cl)c3)nn3cc(C(F)(F)F)ccc23)n1` had a 50% inhibitory concentration (IC50) of 10 to 100 nM.

For the compound `FC(F)(F)c1ccc(-c2nn3cc(C(F)(F)F)ccc3c2-c2ccnc(NCCCN3CCCCC3)n2)cc1`, the 50% inhibitory concentration (IC50) in assay [1] is 1000 to 10000 nM.

In turn, `CCN(CC)CCNc1nccc(-c2c(-c3ccc(C(F)(F)F)cc3)nn3cc(C(F)(F)F)ccc23)n1` registered an IC50 in assay [1] of 1000 to 10000 nM.

Take `CSc1nccc(-c2c(-c3ccc(F)cc3)nn3ccccc23)n1`: in assay [1], the IC50 was < 500 nM. Further, the inhibition in assay [2] came out at 56%.

Take `NC(=O)c1ccc2c(-c3ccnc(NCCCO)n3)c(-c3ccc(F)cc3)nn2c1`: the IC50 in assay [1] was < 500 nM.

As for `CN(C)CCCNc1nccc(-c2c(-c3ccc(F)c(Cl)c3)nn3cc(C(F)(F)F)ccc23)n1`, the IC50 in assay [1] lay in the range of 10 to 100 nM.

With `Nc1nccc(-c2c(-c3ccc(F)cc3)nn3cc(C(F)(F)F)ccc23)n1`, the IC50 in assay [1] was < 500 nM.

In turn, `CCCN(CCC)CCNc1nccc(-c2c(-c3ccc(F)c(Cl)c3)nn3cc(C(F)(F)F)ccc23)n1` gave a half-inhibitory concentration (IC50) in assay [1] of 100 to 1000 nM.

For `OCCCNc1cc(-c2c(-c3ccc(F)cc3)nn3ccccc23)ccn1`, the half-inhibitory concentration (IC50) in assay [1] was < 500 nM; in assay [3], > 50000 nM. The compound further came in with an inhibition in assay [2] of 45%.

`FC(F)(F)c1ccc(-c2nn3cc(C(F)(F)F)ccc3c2-c2ccnc(NCCN3CCOCC3)n2)cc1` yielded an IC50 in assay [1] of 1000 to 10000 nM.

As to `CCCCNc1nccc(-c2c(-c3ccc(F)cc3)nn3ccccc23)n1`, the 50% inhibitory concentration (IC50) in assay [1] was < 500 nM. In assay [2], this compound had an inhibition of 88%.

`Fc1ccc(-c2nn3cc(C(F)(F)F)ccc3c2-c2ccnc(NCCN3CCCCCC3)n2)cc1Cl`: in assay [1], the half-maximal inhibitory concentration (IC50) lay within 100 to 1000 nM.

For the compound `FC(F)(F)c1ccc2c(-c3ccnc(NCCN4CCCC4)n3)c(-c3cccc(Cl)c3)nn2c1`, the IC50 in assay [1] lay within 100 to 1000 nM.

`COc1ccn2nc(-c3ccc(F)cc3)c(-c3ccncc3)c2c1` came in with a concentration for half-maximal inhibition (IC50) in assay [1] of 500 to 5000 nM. Moreover, the inhibition in assay [2] came to 11%.

For the compound `Fc1ccc(-c2nn3cc(C(F)(F)F)ccc3c2-c2ccnc(Oc3ccccc3)n2)cc1`, the IC50 in assay [1] is < 500 nM.

On to `Fc1ccc(-c2nn3ccccc3c2-c2ccnc(NC3CC3)n2)cc1`, for which the IC50 in assay [1] was < 500 nM.

On to `CC(C)Nc1nccc(-c2c(-c3ccc(F)cc3)nn3cc(C(F)(F)F)ccc23)n1`, for which the half-inhibitory concentration (IC50) in assay [1] was < 500 nM. Besides, the inhibition in assay [2] was 45%.

In assay [1], `CC(C)N(CCNc1nccc(-c2c(-c3ccc(F)c(Cl)c3)nn3cc(C(F)(F)F)ccc23)n1)C(C)C` gave a half-inhibitory concentration (IC50) of 100 to 1000 nM.
